The source of these data is patent US6110494A, “Cisapride mini-tablet formulations” (Elan Corporation, plc, priority 1997, dated 2000).

For data set [1] the following is noted: extended release, viscous hydrophilic polymers; cited from earlier work.
The conditions of data set [2]: cited from earlier work.
Data set [3] in a line: Solubility of cisapride and its salt.

For the compound `COc1cc(N)c(Cl)cc1C(=O)NC1CCN(CCCOc2ccc(F)cc2)CC1OC.O=C(O)C(O)C(O)C(=O)O` (single isomer, unassigned; (+)) [(+)-cisapride-(L) tartrate], the dissolution rates entry in data set [1] is “equal dissolution rates”.

`COc1cc(N)c(Cl)cc1C(=O)NC1CCN(CCCOc2ccc(F)cc2)CC1OC` (stereo not drawn) [Cisapride]: the “effect of food on absorption” value in data set [2] (food) is “enhancing effect on the absorption”. Also, in data set [2] (in vivo), the half life entry is given as “relatively short half life”. For the same compound, in data set [2] (more distal regions), the “absorption in distal regions of the gastrointestinal tract” value is reported as “significant decrease in absorption”. The “solubilisation at pH 6.8” value in data set [3] is recorded as “SLS (sodium lauryl sulphate) was required to solubilise”.

In the case of `COc1cc(N)c(Cl)cc1C(=O)NC1CCN(CCCOc2ccc(F)cc2)CC1OC` (single isomer, unassigned; (-)) [(-)-cisapride-(L)tartrate], in data set [1], the dissolution rates entry is reported as “equal dissolution rates”.
